Measured values taken from patent publication US12201628B2, “Neuronal modulation” (priority 2013, dated 2025).

Tests used:
[1] = tested on: immune cell clusters (CD45+ cells); test: CyTOF mass cytometry of blood and spleen with Citrus analysis; type: in vivo, mice; details: 6-OHDA 150 mg/kg twice IP (SNS ablated); splenocytes 24 h after VTA activation
Method: Two weeks after completion of the behavioral testing, mice were injected intraperitoneally with CNO and anesthetized 24 hours thereafter. Spleens and blood samples were collected. Spleens were dissociated into single-cell suspensions in 2% fetal bovine serum (Biological Industries, IL) and mesh filtered to remove clumps and debris. Blood samples were collected into heparin-coated sterile test tubes. Both the blood and the spleen cell suspensions were lysed with red blood cell lysis buffer (BD Biosciences, NJ, US). Cells ([…]) from each tissue were stained, for 1 hour at room temperature, with a mixture of metal tagged antibodies recognizing CD45, CCR3, CD80, GR1, CD86, CD19, CD4, CD45R, CD152, CD138, CD8, NK1.1, CD27, CD206, CD25, CD14, CD11c, CD49b, CD34, CD69, CD123, TCRβ, CCR7, CD28, CD115, CD133, TLR4, CD117, CD79b, CD62L, CD44, CD45RA, CD1d, IAIE, CD5, and CD11b. All antibodies were conjugated using the MAXPAR reagent (Fluidigm Inc.), with Rhodium and Iridium intercalators used to identify live/dead cells. Cells were washed twice with PBS, fixed in 1.6% formaldehyde (Sigma-Aldrich, St. Louis, MO) for 1 hour, washed again in ultrapure H2O and subjected to CyTOF mass cytometry analysis on a CyTOF I machine, with cell events acquired at approximately 500 events per second. In addition, each sample was spiked with internal metal isotope bead standards, which then was used for sample normalization by CyTOF software (Fluidigm). Acquired data was then uploaded to a Cytobank web server (Cytobank Inc.) for data processing and gating out of dead cells and normalization beads. Data was transformed using an arc sin h (X/5) transformation.
Differences in cell subset abundance and functional marker expression between VTA activated and control mice, were identified using the Citrus algorithm, a clustering and differential detection algorithm especially suited for high dimensional cytometry data (2). Twenty FCS files of normalized, live cell/no beads samples (Five VTA activated mice spleens, five VTA activated mice blood samples, 5 control mice spleen and five control mice blood) were each randomly sampled for 40,000 single cell events each. Briefly, Citrus performs three steps to identify cell subsets and differences between groups: First, collected single cell events are pooled together and iteratively hierarchically clustered using a subset of the measured channels for clustering (See Table 1 for a list of 23 clustering markers), yielding overlapping clusters with the ultimate cluster being one encompassing all sampled events. Second, the pooled dataset is split back into its constituting samples and the relative abundance of cells in each cluster is computed, as well as the median values of each functional marker (see Table 1 for a list of functional markers). Only cell clusters whose total abundance in one or more of the measured samples was greater than 1% of the total measured sample was retained for downstream analysis, yielding a total of 151 clusters. Third, the Citrus implementation of the SAM algorithm was applied, to identify, separately, differences in cell subset abundances and medians between VTA activated and control mouse samples at a predetermined FDR of 5%. Beyond this, an additional criteria for calling differences was employed, by performing a Mann-Whitney non-parametric test of significance on each cluster found to be different between VTA activated and control and requiring that it meet a p-value <0.05 criteria. Manual inspection of Citrus output was used to identify the closest known gross-cell type, matching the 23 combination clustering marker panel. A similar procedure analysis procedure was performed for 6-OHDA samples versus control. […]

[2] = IP injected; cited from earlier work

## NCCc1cc(O)c(O)cc1O [6 OHDA, 6-hydroxydopamine]
[1]
  differences in immune system (CD45+ cells) between VTA-activated and control mice: no significant differences were detected
[2]
  crossing of the blood brain barrier: does not cross the blood brain barrier
